Source: the supplement of paper PMC10307832

How the values were obtained:
Test in all cases: relative viability (nuclei count vs DMSO), 5 days (fraction); higher = more cells survive
SK-MES-1 = tested on: SK-MES-1
How it was run: (§1)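 Relative viability divides the nuclei count in treated wells by that in vehicle wells. Lung cancer cell lines were seeded in 1536-well plates, dosed by pin tool the next day, and fixed and stained after 5 days in one step with final 0.05% Triton X-100, 1% formaldehyde and 1 ug/ml Hoechst. Dosing was a single drug or a fixed anchor-drug dose plus five library-drug doses (not always all listed) in √10 steps, and values are medians of duplicate plates imaged at 4×.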

ABC-1 = tested on: ABC-1
How it was run: as §1

COR-L23 = tested on: COR-L23
How it was run: as §1

HCC-827 = tested on: HCC-827
How it was run: as §1

LC-2-ad = tested on: LC-2-ad
How it was run: as §1

HCC-366 = tested on: HCC-366
How it was run: as §1

UMC-11 = tested on: UMC-11
How it was run: as §1

NCI-H1975 = tested on: NCI-H1975
How it was run: as §1

NCI-H661 = tested on: NCI-H661
How it was run: as §1

NCI-H2085 = tested on: NCI-H2085
How it was run: as §1

HCC-15 = tested on: HCC-15
How it was run: as §1

PC-14 = tested on: PC-14
How it was run: as §1

NCI-H2009 = tested on: NCI-H2009
How it was run: as §1

NCI-H2228 = tested on: NCI-H2228
How it was run: as §1

NCI-H1666 = tested on: NCI-H1666
How it was run: as §1

NCI-H2087 = tested on: NCI-H2087
How it was run: as §1

LCLC-103H = tested on: LCLC-103H
How it was run: as §1

H3255 = tested on: H3255
How it was run: as §1

NCI-H1437 = tested on: NCI-H1437
How it was run: as §1

LXF-289 = tested on: LXF-289
How it was run: as §1

NCI-H2342 = tested on: NCI-H2342
How it was run: as §1

PC-3 [JPC-3] = tested on: PC-3 [JPC-3]
How it was run: as §1

NCI-H23 = tested on: NCI-H23
How it was run: as §1

CCNC(=O)c1noc(-c2cc(C(C)C)c(O)cc2O)c1-c1ccc(CN2CCOCC2)cc1 [Luminespib] + COc1cc2c(Oc3ccc(NC(=O)C4(C(=O)Nc5ccc(F)cc5)CC4)cc3F)ccnc2cc1OCCCN1CCOCC1 [Foretinib] (partner 0.25 µM)
relative viability (SK-MES-1; first compound 0.002 µM): 0.829 | relative viability (SK-MES-1; first compound 0.006325 µM): 0.804 | relative viability (SK-MES-1; first compound 0.02 µM): 0.777 | relative viability (SK-MES-1; first compound 0.06325 µM): 0.138 | relative viability (SK-MES-1; first compound 0.2 µM): 0.156 | relative viability (ABC-1; first compound 0.002 µM): 1.08 | relative viability (ABC-1; first compound 0.006325 µM): 0.881 | relative viability (ABC-1; first compound 0.02 µM): 0.859 | relative viability (ABC-1; first compound 0.06325 µM): 0.583 | relative viability (ABC-1; first compound 0.2 µM): 0.206 | relative viability (COR-L23; first compound 0.002 µM): 1.06 | relative viability (COR-L23; first compound 0.006325 µM): 0.894 | relative viability (COR-L23; first compound 0.02 µM): 1.12 | relative viability (COR-L23; first compound 0.06325 µM): 0.124 | relative viability (COR-L23; first compound 0.2 µM): 0.105 | relative viability (HCC-827; first compound 0.002 µM): 1.06 | relative viability (HCC-827; first compound 0.006325 µM): 0.971 | relative viability (HCC-827; first compound 0.02 µM): 0.869 | relative viability (HCC-827; first compound 0.06325 µM): 0.692 | relative viability (HCC-827; first compound 0.2 µM): 0.152 | relative viability (LC-2-ad; first compound 0.002 µM): 1.02 | relative viability (LC-2-ad; first compound 0.006325 µM): 0.928 | relative viability (LC-2-ad; first compound 0.02 µM): 0.834 | relative viability (LC-2-ad; first compound 0.06325 µM): 0.321 | relative viability (LC-2-ad; first compound 0.2 µM): 0.25 | relative viability (HCC-366; first compound 0.002 µM): 0.925 | relative viability (HCC-366; first compound 0.006325 µM): 0.921 | relative viability (HCC-366; first compound 0.02 µM): 0.921 | relative viability (HCC-366; first compound 0.06325 µM): 0.887 | relative viability (HCC-366; first compound 0.2 µM): 0.199 | relative viability (UMC-11; first compound 0.002 µM): 1.14 | relative viability (UMC-11; first compound 0.006325 µM): 0.982 | relative viability (UMC-11; first compound 0.02 µM): 0.816 | relative viability (UMC-11; first compound 0.06325 µM): 0.561 | relative viability (UMC-11; first compound 0.2 µM): 0.169 | relative viability (NCI-H1975; first compound 0.002 µM): 1.07 | relative viability (NCI-H1975; first compound 0.006325 µM): 0.97 | relative viability (NCI-H1975; first compound 0.02 µM): 0.615 | relative viability (NCI-H1975; first compound 0.06325 µM): 0.0994 | relative viability (NCI-H1975; first compound 0.2 µM): 0.108 | relative viability (NCI-H661; first compound 0.002 µM): 1.11 | relative viability (NCI-H661; first compound 0.006325 µM): 0.992 | relative viability (NCI-H661; first compound 0.02 µM): 0.922 | relative viability (NCI-H661; first compound 0.06325 µM): 0.597 | relative viability (NCI-H661; first compound 0.2 µM): 0.301 | relative viability (NCI-H2085; first compound 0.002 µM): 1.19 | relative viability (NCI-H2085; first compound 0.006325 µM): 0.896 | relative viability (NCI-H2085; first compound 0.02 µM): 1.07 | relative viability (NCI-H2085; first compound 0.06325 µM): 0.603 | relative viability (NCI-H2085; first compound 0.2 µM): 0.457 | relative viability (HCC-15; first compound 0.002 µM): 1.09 | relative viability (HCC-15; first compound 0.006325 µM): 0.971 | relative viability (HCC-15; first compound 0.02 µM): 1.07 | relative viability (HCC-15; first compound 0.06325 µM): 0.151 | relative viability (HCC-15; first compound 0.2 µM): 0.126 | relative viability (PC-14; first compound 0.002 µM): 0.967 | relative viability (PC-14; first compound 0.006325 µM): 0.882 | relative viability (PC-14; first compound 0.02 µM): 0.945 | relative viability (PC-14; first compound 0.06325 µM): 0.567 | relative viability (PC-14; first compound 0.2 µM): 0.125 | relative viability (NCI-H2009; first compound 0.002 µM): 1.22 | relative viability (NCI-H2009; first compound 0.006325 µM): 1.16 | relative viability (NCI-H2009; first compound 0.02 µM): 1.33 | relative viability (NCI-H2009; first compound 0.06325 µM): 0.298 | relative viability (NCI-H2009; first compound 0.2 µM): 0.0898 | relative viability (NCI-H2228; first compound 0.002 µM): 0.776 | relative viability (NCI-H2228; first compound 0.006325 µM): 0.844 | relative viability (NCI-H2228; first compound 0.02 µM): 0.692 | relative viability (NCI-H2228; first compound 0.06325 µM): 0.111 | relative viability (NCI-H2228; first compound 0.2 µM): 0.117 | relative viability (NCI-H1666; first compound 0.002 µM): 0.988 | relative viability (NCI-H1666; first compound 0.006325 µM): 0.904 | relative viability (NCI-H1666; first compound 0.02 µM): 0.986 | relative viability (NCI-H1666; first compound 0.06325 µM): 0.94 | relative viability (NCI-H1666; first compound 0.2 µM): 0.967 | relative viability (NCI-H2087; first compound 0.002 µM): 1.11 | relative viability (NCI-H2087; first compound 0.006325 µM): 1.1 | relative viability (NCI-H2087; first compound 0.02 µM): 1.37 | relative viability (NCI-H2087; first compound 0.06325 µM): 0.118 | relative viability (NCI-H2087; first compound 0.2 µM): 0.113 | relative viability (LCLC-103H; first compound 0.002 µM): 0.826 | relative viability (LCLC-103H; first compound 0.006325 µM): 0.778 | relative viability (LCLC-103H; first compound 0.02 µM): 0.757 | relative viability (LCLC-103H; first compound 0.06325 µM): 0.87 | relative viability (LCLC-103H; first compound 0.2 µM): 0.362 | relative viability (H3255; first compound 0.002 µM): 0.785 | relative viability (H3255; first compound 0.006325 µM): 0.821 | relative viability (H3255; first compound 0.06325 µM): 0.833 | relative viability (H3255; first compound 0.2 µM): 0.329 | relative viability (NCI-H1437; first compound 0.002 µM): 1.3 | relative viability (NCI-H1437; first compound 0.006325 µM): 1.2 | relative viability (NCI-H1437; first compound 0.02 µM): 1.33 | relative viability (NCI-H1437; first compound 0.06325 µM): 1.24 | relative viability (NCI-H1437; first compound 0.2 µM): 0.526 | relative viability (LXF-289; first compound 0.002 µM): 0.993 | relative viability (LXF-289; first compound 0.006325 µM): 0.979 | relative viability (LXF-289; first compound 0.02 µM): 1.2 | relative viability (LXF-289; first compound 0.06325 µM): 0.547 | relative viability (LXF-289; first compound 0.2 µM): 0.323 | relative viability (NCI-H2342; first compound 0.002 µM): 1.02 | relative viability (NCI-H2342; first compound 0.006325 µM): 0.991 | relative viability (NCI-H2342; first compound 0.02 µM): 0.656 | relative viability (NCI-H2342; first compound 0.06325 µM): 0.786 | relative viability (NCI-H2342; first compound 0.2 µM): 0.543 | relative viability (PC-3 [JPC-3]; first compound 0.002 µM): 1.01 | relative viability (PC-3 [JPC-3]; first compound 0.006325 µM): 0.938 | relative viability (PC-3 [JPC-3]; first compound 0.02 µM): 1.18 | relative viability (PC-3 [JPC-3]; first compound 0.06325 µM): 0.728 | relative viability (PC-3 [JPC-3]; first compound 0.2 µM): 0.259 | relative viability (NCI-H23; first compound 0.002 µM): 1.26 | relative viability (NCI-H23; first compound 0.006325 µM): 1.03 | relative viability (NCI-H23; first compound 0.02 µM): 0.858 | relative viability (NCI-H23; first compound 0.06325 µM): 0.971 | relative viability (NCI-H23; first compound 0.2 µM): 0.591
